Target: T1, AhR (Homo sapiens, UniProt P35869)
T1 sequence (P35869 11-848): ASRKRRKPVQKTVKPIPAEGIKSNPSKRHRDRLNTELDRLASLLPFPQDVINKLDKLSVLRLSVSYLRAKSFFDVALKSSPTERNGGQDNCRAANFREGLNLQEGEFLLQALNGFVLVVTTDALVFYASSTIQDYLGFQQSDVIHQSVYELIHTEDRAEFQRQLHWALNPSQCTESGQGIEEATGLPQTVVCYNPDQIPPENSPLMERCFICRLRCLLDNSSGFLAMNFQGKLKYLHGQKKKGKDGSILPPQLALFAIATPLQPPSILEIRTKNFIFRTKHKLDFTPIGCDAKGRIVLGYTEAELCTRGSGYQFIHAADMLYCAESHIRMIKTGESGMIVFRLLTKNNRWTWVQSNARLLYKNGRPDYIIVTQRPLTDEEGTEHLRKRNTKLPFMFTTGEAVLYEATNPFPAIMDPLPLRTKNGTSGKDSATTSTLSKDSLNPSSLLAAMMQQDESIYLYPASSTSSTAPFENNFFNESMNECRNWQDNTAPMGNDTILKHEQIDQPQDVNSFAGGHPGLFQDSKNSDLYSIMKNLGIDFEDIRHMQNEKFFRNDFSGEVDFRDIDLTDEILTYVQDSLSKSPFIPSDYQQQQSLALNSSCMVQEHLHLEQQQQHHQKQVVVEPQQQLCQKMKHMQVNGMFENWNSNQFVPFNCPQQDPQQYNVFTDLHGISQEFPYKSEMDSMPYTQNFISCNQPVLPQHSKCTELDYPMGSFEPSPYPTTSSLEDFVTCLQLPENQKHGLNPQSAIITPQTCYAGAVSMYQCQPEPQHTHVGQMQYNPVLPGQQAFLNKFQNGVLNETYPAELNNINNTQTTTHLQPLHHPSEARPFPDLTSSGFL
Test: AhR inhibitory activity experiment, in vitro assay 1: HepG2-Lucia AhR cells, Lucia luciferase reporter (QUANTI-Luc)
Assay type: cell-based
Conditions: 24 hours incubation at 37° C., Lucia luciferase in supernatant, read-out: AhR inhibitory activity C50
Method: Test Example: AhR Inhibitory Activity Experiment
When QUANTI-Luc™ (InvivoGen Company) testing reagents are used, AhR gene signaling pathways can be studied by monitoring the activity of Lucia luciferase in the cell culture supernatant.
In Vitro Assay 1: Assay on Inhibitory Activity in Human Cell Lines
Adherent cell layers of HepG2-Lucia™ AhR cells in a logarithmic growth phase were washed with PBS, and then the cells were isolated with trypsin. The isolated cells were centrifuged at 1000 RPM for 5 minutes, the supernatant was removed, and the cells were re-suspended with a test medium by 1.25×10^5 cells/ml.
20,000 cells were added to each well of a 96-well plate, and the 96-well plate was placed in a CO2 incubator to incubate the cells at 37° C. for 24 hours in the absence (negative control) or presence of test compounds with gradient increasing concentrations (typical dilutions: 169 pmol/L, 0.5 nmol/L, 1.5 nmol/L; 4.6 nmol/L, 13.7 nmol/L, 41 nmol/L, 123 nmol/L, 370 nmol/L, 1.1 μmol/L, 3.3 μmol/L and 10 μmol/L, in triplicate).
The 20 μl/well cell supernatant was transferred to a black 96-well plate, a 50 μL/well QUANTI-Luc™ solution was added, and the activity of Lucia luciferase was measured on a multifunctional ELISA reader Spark 10 M (Tecan Company) through a QUANTI-Luc™ luciferase assay system.
Experimental results are shown in Table 1, wherein for IC50 values, “++++” represents IC50<0.05 μM; “+++” represents IC50 between 0.05 μM and 0.2 μM; “++” represents IC50 between 0.2 μM and 1.0 μM; and “+” represents IC50>1.0 μM.

IC50 | SMILES
< 50 nM | C[C@H](NC(=O)c1cc(-c2ccc(Cl)cc2)nc(-c2cnn(C)c2)n1)c1ccc(F)c(F)c1 [Compound 1, (S)-6-(4-chlorophenyl)-N-(1-(3,4-difluorophenyl)ethyl)-2-(1-methyl-1H-pyrazol-4-yl)pyrimidine-4-formamide]
< 50 nM | C[C@H](NC(=O)c1cc(-c2ccc(Cl)cc2)nc(-c2cnn(C)c2)n1)c1ccc(F)c(C#N)c1 [Compound 40, (S)-6-(4-chlorophenyl)-N-(1-(3-cyano-4-fluorophenyl)ethyl)-2-(1-methyl-1H-pyrazol-4-yl)pyrimidine-4-formamide]
< 50 nM | O=C(N[C@H]1CCc2ncccc21)c1cc(-c2ccc(OC(F)(F)F)cc2)nc(-c2cccnc2)n1 [Compound 27, (S)-6-(4-trifluoromethoxyphenyl)-N-((S)-6,7-dihydro-5H-cyclopentano[B]pyridin-5-yl)-2-(3-pyridyl)pyrimidine-4-formamide]
> 1000 nM | C[C@H](NC(=O)c1cc(-c2cnn(C)c2)nc(-c2cnn(C)c2)n1)c1ccnc(F)c1 [Compound 48, (S)-6-(1-methyl-1H-pyrazol-4-yl)-N-(1-(2-fluoro-4-pyridine)ethyl)-2-(1-methyl-1H-pyrazol-4-yl)pyrimidine-4-formamide]
> 1000 nM | C[C@H](NC(=O)c1cc(-c2ccnc(F)c2)nc(-c2cnn(C)c2)n1)c1ccnc(F)c1 [Compound 49, (S)-6-(2-fluoro-4-pyridine)-N-(1-(2-fluoro-4-pyridine)ethyl)-2-(1-methyl-1H-pyrazol-4-yl)pyrimidine-4-formamide]
< 50 nM | Cn1cc(-c2nc(C(=O)N[C@H]3CCCc4ncccc43)cc(-c3ccc(Cl)cc3)n2)cn1 [Compound 23, (S)-6-(4-chlorophenyl)-N-((S)-5,6,7,8-tetrahydro-6H-quinol-5-yl)-2-(1-methyl-1H-pyrazol-4-yl)pyrimidine-4-formamide]
> 1000 nM | Cc1noc(C)c1-c1nc(C(=O)N[C@@H](C)c2ccnc(F)c2)cc(-c2ccc(Cl)cc2)n1 [Compound 59, (S)-6-(4-chlorophenyl)-N-(1-(2-fluoro-4-pyridine)ethyl)-2-(3,5-dimethylisoxazol-4-yl)pyrimidine-4-formamide]
200 to 1000 nM | C[C@H](NC(=O)c1cc(-c2ccc(Cl)cc2)nc(-c2cnn(C)c2)n1)c1ccccc1C(F)(F)F [Compound 24, (S)-6-(4-chlorophenyl)-N-(1-(o-trifluoromethylphenyl)ethyl)-2-(1-methyl-1H-pyrazol-4-yl)pyrimidine-4-formamide]
< 50 nM | Cn1cc(-c2nc(C(=O)N[C@H]3CCc4cc(C#N)ccc43)cc(-c3ccc(Cl)cc3)n2)cn1 [Compound 28, (S)-6-(4-chlorophenyl)-N-(5-cyano-(2,3-dihydro)-(−)-1-yl-2-indene)-2-(1-methyl-1H-pyrazol-4-yl)pyrimidine-4-formamide]

Source: patent US12668586B2, “AhR inhibitor, use thereof, and preparation method therefor” (CHONGQING PHARSCIN INNOBIO CO., LTD., priority 2021, dated 2026)
